In patent US11572590B2, “Methods for evaluating tumor cell spheroids using 3D microfluidic cell culture device” (Dana-Farber Cancer Institute, Inc., priority 2017, dated 2023):

System: B16F10 MDOTS
Assay: Live/dead (AO/PI) imaging of B16F10 MDOTS in 3D microfluidic culture
Assay type: cell-based, murine
Settings: Cmpd1 (1 μM) + αPD-1, 6 days
Description: Fresh tumor specimens (murine and human patients) were received in media (DMEM) on ice and minced in a 10 cm dish (on ice) using sterile forceps and scalpel. Minced tumor was resuspended in DMEM ([…], […] sodium pyruvate, 1:100 penicillin-streptomycin) (Corning CellGro, Manassas, Va.) +10% FBS (Gemini Bio-Products, West Sacramento, Calif.), 100 U/mL collagenase type IV (Life Technologies, Carlsbad, Calif.), and 15 mM HEPES (Life Technologies, Carlsbad, Calif.), except for CT26 tumors that were prepared in RPMI. Samples were pelleted and resuspended in 10-20 mL media. Red blood cells were removed from visibly bloody samples using RBC Lysis Buffer (Boston Bio-Products, Ashland, Mass.). […]
Dual labeling was performed by loading microfluidic device with Nexcelom ViaStain™ AO/PI Staining Solution (Nexcelom, CS2-0106). Following incubation with the dyes (20 minutes at room temperature in the dark), images were captured on a Nikon Eclipse 80i fluorescence microscope equipped with Z-stack (Prior) and CoolSNAP CCD camera (Roper Scientific). […] Live and dead cell quantitation was performed by measuring total cell area of each dye. […]

For N#Cc1cc(-c2ncnc(Nc3ccc(N4CCN(C5COC5)CC4)cc3)n2)ccc1OC1CCOCC1 [Compound 1, 5-(4-((4-(4-(oxetan-3-yl)piperazin-1-yl)phenyl)amino)-1,3,5-triazin-2-yl)-2-((tetrahydro-2H-pyran-4-yl)oxy)benzonitrile], the “sensitization of B16F10 MDOTS to PD-1 blockade (live/dead)” value was “could not be sensitized”.
